For the test, the system named is PDX1-BIRC5-Survivin axis.

`CCC(C)(C)C(=O)OC1CC(C)C=C2C=CC(C)C(CCC(O)CC(O)CC(=O)NO)C21` (stereo not shown) [Sim-CONHOH, Simvastatin-NHOH]: the “activity in the PDX1-BIRC5-Survivin bioassays” value is “active”.

The values are drawn from patent US20240150279A1, “C PRIME AGENTS FOR TREATING METABOLIC DISORDERS” (The University of Toledo, priority 2021, published 2024).
